Data: patent publication US20250268824A1, “METHODS FOR MAKING REDUCED PARTICLE SIZE COMPOUNDS” (TaP Pharmaceuticals AG, priority 2024, published 2025)

Assay: Miscibility of unprocessed prednisolone acetate with water
Format: physicochemical
Details: floats on the surface of water
Description: (§1) API Particle size reduction. The API, prednisolone acetate, of the present invention is destined for inclusion in ophthalmic formulation and characterized by a target PSD of: D10≤0.15 μM, D50≤0.75 μM, D90≤2.5 μM. […] Addition of surfactant (e.g. polysorbate) to aqueous solution was required to form slurries of prednisolone acetate suitable for use as vehicles in particle size reduction experiments that employed bead milling and high-pressure homogenization.
as §1, with “and in some embodiments” for “and”, “D10≤1.0” for “D10≤0.15”, “D50≤2.2” for “D50≤0.75”, “D90≤4.5” for “D90≤2.5”, “that” for “that employed bead milling and”

SMILES: CC(=O)OCC(=O)[C@@]1(O)CC[C@H]2[C@@H]3CCC4=CC(=O)C=C[C@]4(C)[C@H]3[C@@H](O)C[C@@]21C [prednisolone acetate]
- miscibility with water: immiscible with water
